SMILES strings stand for the structures. Where only a bound is given, the exact number is not on record here.

The first test addresses T1, MaltOBP10 (Monochamus alternatus, UniProt A0A1I9HZL5).
T1 construct: gene obp10; said to encode mature protein (clone primer starts at ATG)
T1 sequence (A0A1I9HZL5 1-144 limits assumed): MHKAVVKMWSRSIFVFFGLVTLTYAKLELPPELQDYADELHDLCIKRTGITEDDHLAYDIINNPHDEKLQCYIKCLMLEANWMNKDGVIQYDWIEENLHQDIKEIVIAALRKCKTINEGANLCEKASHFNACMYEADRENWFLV
The test can be described thus: fluorescence titration, Scatchard analysis. The class given is binding. The settings on record: read-out: MaltOBP10 / pH7.4. The source says: fluorescence titration, Scatchard analysis on MaltOBP10
`c1ccc(Nc2cccc3ccccc23)cc1` [1-NPN]: the Kd turned out to be 1.35 ± 0.09 µM.

The next test concerns the target T1, MaltOBP10. The test can be described thus: biochemical. On the set-up: 1-NPN fluorescence displacement competitive binding to 2 uM recombinant OBP; Ki from IC50. The settings on record: pH 5.0; binder; read-out: MaltOBP10 / pH5.0. As to the method:
(§1) Fluorescence-binding assays were performed to determine the binding affinities of MaltOBP9 and MaltOBP10 with 17 volatiles in neutral and acidic pH conditions separately using N-phenyl-1-naphthylamine (1-NPN) as the fluorescent probe. 1-NPN and all of the other chemicals used in the binding assays were purchased from Sigma-Aldrich (St. Louis, MO, United States). All of the ligand stock solutions were prepared in spectrophotometric grade methanol. The binding constants for 1-NPN were determined by adding aliquots of 1 mM 1-NPN to separate samples containing 2 μM of each OBP in 50 mM Tris–HCl at pH 7.4 and room temperature. The binding of 1-NPN was measured at an excitation wavelength of 337 nm and the fluorescence intensity was recorded between 300 and 600 nm during a high-speed scan using an RF-5301PC fluorescence spectrophotometer with a 1-cm light path and a quartz cuvette. Saturation curves were constructed for the binding of 1-NPN with the OBPs and the dissociation constant (Kd) of the binding reaction was calculated by performing Scatchard analysis of the data using the Prism 5 program (GraphPad, La Jolla, CA, United States). The binding analyses were performed based on the assumption that the protein was completely active and that the stoichiometry of binding was 1:1 at saturation. Aliquots of the competitor ligand were added to a sample containing 2 μM of each separate OBP and a standard concentration of 1-NPN. […] The binding data were collected during three independent high-speed scans. Ki representing the Kd of the competitor was determined based on the IC50 value (half maximal inhibitory concentration) for the competitor as the concentration of the competitor that displaced 50% of the bound 1-NPN at a standard total 1-NPN concentration (bound plus free) at equilibrium. Ki was calculated according to the following equation: Ki = [IC50]/(1+[1-NPN]/K), where 1-NPN is the free concentration of 1-NPN and K1–NPN is Kd for the 1-NPN-OBP binding reaction determined by Scatchard analysis ([Campanacci et al., 2001]). After confirmation by SDS-PAGE, the purified MaltOBP9 and MaltOBP10 proteins were used in fluorescence-binding assays to determine their binding affinities with different volatiles that come from forest. First, we analyzed the binding of the fluorescent probe 1-NPN with MaltOBP9 and MaltOBP10 (Figure 6). […] The binding affinities (Ki < 50) ([Zheng et al., 2016]) with all of the ligands indicted the broad binding ranges of MaltOBP9 and MaltOBP10 at pH 7.4. […] The change in the pH appeared to have less impact on the binding with MaltOBP10.
For `C=C(C)C1CCC2(C)OC2C1` (single isomer, unassigned; (+)) [(+)-Limonene oxide], the Ki is 46.1 ± 4.9 µM.

The test is the same for the next values; noted with them: pH 5.0; read-out: MaltOBP10 / pH5.0.
Turning to `C=C(C)[C@H]1CC=C(C)CC1` [R-(+)-Limonene], the Ki turned out to be 55.5 ± 9.88 µM.
In the case of `C=CC(=C)CCC=C(C)C` [Myrcene], the Ki turned out to be 19.37 ± 0.02 µM.
Regarding `CC1=CCC(=C(C)C)CC1` [α-terpinolene], the Ki worked out at 15.6 ± 1.44 µM.
For the molecule `C=C(C)[C@@H]1CC=C(C)CC1` [S-(−)-Limonene], the Ki came to 51.7 ± 5.74 µM.
On to `CC1=CC[C@@H]2C[C@H]1C2(C)C` [(+)-α-pinene], for which the Ki is 17.3 ± 3.16 µM.
Regarding `C=C1CC/C=C(\C)CC[C@@H]2[C@@H]1CC2(C)C` [β-Caryophyllene], the Ki worked out at 23.5 ± 1.72 µM.
For the molecule `CC1(C)C(=O)[C@@]2(C)CC[C@@H]1C2` [(+)-Fenchone], the Ki amounted to 24.7 ± 1.29 µM.

The same test, now with this note: pH 7.4; binder; read-out: MaltOBP10 / pH7.4.
As for `C=C(C)C1CCC2(C)OC2C1` (single isomer, unassigned; (+)) [(+)-Limonene oxide], the Ki came to 19.8 ± 1.78 µM.

The same test, now with this note: pH 7.4; read-out: MaltOBP10 / pH7.4.
Regarding `C=C(C)[C@H]1CC=C(C)CC1` [R-(+)-Limonene], the Ki is 23.9 ± 1.89 µM.
Turning to `CC1(C)C(=O)[C@@]2(C)CC[C@@H]1C2` [(+)-Fenchone], the Ki came to 22.7 ± 1.23 µM.

The target in another test is T2, MaltOBP9 (Monochamus alternatus, UniProt A0A1I9HZK8).
T2 construct: gene obp9; said to encode mature protein (clone primer starts at ATG)
T2 sequence (A0A1I9HZK8 1-140 limits assumed): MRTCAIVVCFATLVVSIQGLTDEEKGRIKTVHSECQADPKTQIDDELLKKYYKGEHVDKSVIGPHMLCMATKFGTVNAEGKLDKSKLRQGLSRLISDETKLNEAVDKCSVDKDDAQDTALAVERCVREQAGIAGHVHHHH
The test can be described thus: biochemical. The settings on record: pH 5.0; binder; read-out: MaltOBP9 / pH5.0. On the set-up: 1-NPN fluorescence displacement competitive binding to 2 uM recombinant OBP; Ki from IC50. As to the method:
as §1
Take `C=C(C)C1CCC2(C)OC2C1` (single isomer, unassigned; (+)) [(+)-Limonene oxide]: the Ki amounted to 48.8 ± 4.51 µM.

Still in this test, the particulars now being: pH 5.0; read-out: MaltOBP9 / pH5.0.
For the molecule `C=C(C)[C@H]1CC=C(C)CC1` [R-(+)-Limonene], the Ki is greater than 50 µM.
With `C=CC(=C)CCC=C(C)C` [Myrcene], the Ki was 3.96 ± 0.78 µM.
Consider `CC1=CCC(=C(C)C)CC1` [α-terpinolene], for which the Ki was determined as 18.5 ± 0.23 µM.
Same read-out and setting: as for `C=C(C)[C@@H]1CC=C(C)CC1` [S-(−)-Limonene], the figure is 12 ± 0.86 µM.
Regarding `CC1=CC[C@@H]2C[C@H]1C2(C)C` [(+)-α-pinene], the Ki was greater than 50 µM.
On to `C=C1CC/C=C(\C)CC[C@@H]2[C@@H]1CC2(C)C` [β-Caryophyllene], for which the Ki worked out at 129 ± 9.52 µM.
Consider `CC1(C)C(=O)[C@@]2(C)CC[C@@H]1C2` [(+)-Fenchone], for which the Ki was 46.2 ± 2.59 µM.

Staying with this test, now noted: pH 7.4; binder; read-out: MaltOBP9 / pH7.4.
On to `C=C(C)C1CCC2(C)OC2C1` (single isomer, unassigned; (+)) [(+)-Limonene oxide], for which the Ki was 43.3 ± 0.74 µM.

Staying with this test, now noted: pH 7.4; read-out: MaltOBP9 / pH7.4.
Turning to `CC1=CCC(=C(C)C)CC1` [α-terpinolene], the Ki turned out to be 22.2 ± 0.34 µM.
The same measure, in the same setting: the figure for `C=C(C)[C@@H]1CC=C(C)CC1` [S-(−)-Limonene] is 29.2 ± 1.81 µM; for `CC1=CC[C@@H]2C[C@H]1C2(C)C` [(+)-α-pinene] it is 21.1 ± 2.84 µM.
As to `CC1(C)C(=O)[C@@]2(C)CC[C@@H]1C2` [(+)-Fenchone], the Ki is 27.8 ± 1.04 µM.

The next test addresses T1, MaltOBP10. The test is described as follows: biochemical. On the set-up: direct 1-NPN fluorescence saturation binding to 2 uM recombinant OBP; Kd by Scatchard analysis. The settings on record: pH 5.0; read-out: MaltOBP10 / pH5.0. The protocol:
(§2) Fluorescence-binding assays were performed to determine the binding affinities of MaltOBP9 and MaltOBP10 with 17 volatiles in neutral and acidic pH conditions separately using N-phenyl-1-naphthylamine (1-NPN) as the fluorescent probe. 1-NPN and all of the other chemicals used in the binding assays were purchased from Sigma-Aldrich (St. Louis, MO, United States). All of the ligand stock solutions were prepared in spectrophotometric grade methanol. The binding constants for 1-NPN were determined by adding aliquots of 1 mM 1-NPN to separate samples containing 2 μM of each OBP in 50 mM Tris–HCl at pH 7.4 and room temperature. The binding of 1-NPN was measured at an excitation wavelength of 337 nm and the fluorescence intensity was recorded between 300 and 600 nm during a high-speed scan using an RF-5301PC fluorescence spectrophotometer with a 1-cm light path and a quartz cuvette. Saturation curves were constructed for the binding of 1-NPN with the OBPs and the dissociation constant (Kd) of the binding reaction was calculated by performing Scatchard analysis of the data using the Prism 5 program (GraphPad, La Jolla, CA, United States). […] Ki was calculated according to the following equation: Ki = [IC50]/(1+[1-NPN]/K), where 1-NPN is the free concentration of 1-NPN and K1–NPN is Kd for the 1-NPN-OBP binding reaction determined by Scatchard analysis ([Campanacci et al., 2001]). […]
With `c1ccc(Nc2cccc3ccccc23)cc1` [1-NPN], the Kd is 5.88 ± 0.69 µM.

For a further test, the target named is T2, MaltOBP9. The test is described as follows: biochemical. On the set-up: direct 1-NPN fluorescence saturation binding to 2 uM recombinant OBP; Kd by Scatchard analysis. The settings on record: pH 5.0; read-out: MaltOBP9 / pH5.0. As to the method:
as §2
Regarding `c1ccc(Nc2cccc3ccccc23)cc1` [1-NPN], the Kd was 0.62 ± 0.18 µM.

The next test has as its target T2, MaltOBP9. The test can be described thus: fluorescence competitive binding, 1-NPN displacement. The settings on record: read-out: MaltOBP9 / pH7.4. The source says:
fluorescence competitive binding, 1-NPN displacement on MaltOBP9
In the case of `C=C(C)[C@H]1CC=C(C)CC1` [R-(+)-Limonene], the Ki is 17.1 ± 2.24 µM.
Consider `C=CC(=C)CCC=C(C)C` [Myrcene], for which the Ki came out at 7.77 ± 0.14 µM.
Consider `C=C1CC/C=C(\C)CC[C@@H]2[C@@H]1CC2(C)C` [β-Caryophyllene], for which the Ki turned out to be 16.36 ± 0.04 µM.

The target in a further test is T1, MaltOBP10. Described as above. To be noted: read-out: MaltOBP10 / pH7.4. The source says:
fluorescence competitive binding, 1-NPN displacement on MaltOBP10
Regarding `C=CC(=C)CCC=C(C)C` [Myrcene], the Ki came out at 12.4 ± 0.5 µM.
On to `CC1=CCC(=C(C)C)CC1` [α-terpinolene], for which the Ki stood at 17.5 ± 0.33 µM.
On the same count and under the same terms, the figure for `C=C(C)[C@@H]1CC=C(C)CC1` [S-(−)-Limonene] is 18.4 ± 0.67 µM; for `CC1=CC[C@@H]2C[C@H]1C2(C)C` [(+)-α-pinene] it is 13.3 ± 1.94 µM; for `C=C1CC/C=C(\C)CC[C@@H]2[C@@H]1CC2(C)C` [β-Caryophyllene] it is 16.3 ± 1.97 µM.

A further test concerns the target T2, MaltOBP9. The test is described as follows: fluorescence titration, Scatchard analysis. It is filed as binding. The settings on record: read-out: MaltOBP9 / pH7.4. The source says:
fluorescence titration, Scatchard analysis on MaltOBP9
For `c1ccc(Nc2cccc3ccccc23)cc1` [1-NPN], the Kd came out at 1.7 ± 0.21 µM.

The values above are taken from article PMC7174603, “Functional Analysis of Two Odorant-Binding Proteins, MaltOBP9 and MaltOBP10, in Monochamus alternatus Hope” (Frontiers in Physiology, 2020).
